In PMC11157767 (Molecular Cancer, 2024):

System: TFG-MET allograft tumors
Experiment: RNA-sequencing, differential expression and GSEA of TFG-MET allograft tumors
Type: in vivo, mouse
Details: GSEA CAP vs Veh, C5 GO CC
Method: Error bars display standard error of mean, statistical significance was determined using t-test analysis. (****;p<0.0001, ***;p<0.001, **;p<0.01, *;p<0.05). […] Each dot represents an individual replicate. Error bars display standard error of the mean.
Each dot represents one gene.

CNC(=O)c1ccc(-c2cnc3ncc(Cc4ccc5ncccc5c4)n3n2)cc1F [Capmatinib]
NES GOCC_U12_TYPE_SPLICEOSOMAL_COMPLEX (padj 0.00985351): -1.841 | NES GOCC_ENDOCYTIC_VESICLE_MEMBRANE (padj 0.00993117): 1.48 | NES GOCC_MAIN_AXON (padj 0.0105942): 1.71 | NES GOCC_CILIARY_TIP (padj 0.0106966): 1.78 | NES GOCC_CILIARY_BASAL_BODY (padj 0.0123456): 1.449 | NES GOCC_RNA_POLYMERASE_III_COMPLEX (padj 0.0128749): -1.798 | NES GOCC_CATION_CHANNEL_COMPLEX (padj 0.0130428): 1.45 | NES GOCC_PROTON_TRANSPORTING_TWO_SECTOR_ATPASE_COMPLEX_CATALYTIC_DOMAIN (padj 0.0138609): 1.892 | NES GOCC_SPECIFIC_GRANULE_MEMBRANE (padj 0.0141171): 1.543 | NES GOCC_SWI_SNF_SUPERFAMILY_TYPE_COMPLEX (padj 0.0141171): -1.631 | NES GOCC_U1_SNRNP (padj 0.015809): -1.765 | NES GOCC_MICROBODY (padj 0.0162979): 1.4892 | NES GOCC_CHAPERONE_COMPLEX (padj 0.0163882): -1.777 | NES GOCC_SPINDLE (padj 0.0181265): -1.395 | NES GOCC_AUTOPHAGOSOME_MEMBRANE (padj 0.0181579): 1.734 | NES GOCC_DNA_POLYMERASE_COMPLEX (padj 0.0181579): -1.786 | NES GOCC_P_BODY (padj 0.0181579): -1.619 | NES GOCC_MHC_CLASS_I_PROTEIN_COMPLEX (padj 0.0188701): 1.849 | NES GOCC_AZUROPHIL_GRANULE_MEMBRANE (padj 0.0193916): 1.659 | NES GOCC_EXOCYTIC_VESICLE (padj 0.0193916): 1.3878 | NES GOCC_EXON_EXON_JUNCTION_COMPLEX (padj 0.0194501): -1.776 | NES GOCC_SPLICEOSOMAL_TRI_SNRNP_COMPLEX (padj 0.0201459): -1.73 | NES GOCC_PLASMA_MEMBRANE_PROTEIN_COMPLEX (padj 0.0211865): 1.208 | NES GOCC_SPINDLE_POLE (padj 0.0236958): -1.485 | NES GOCC_CYTOPLASMIC_REGION (padj 0.0239917): 1.358 | NES GOCC_RIBOSOME (padj 0.0240328): -1.42 | NES GOCC_RNA_POLYMERASE_II_HOLOENZYME (padj 0.0260741): -1.585 | NES GOCC_PROTEIN_LIPID_COMPLEX (padj 0.030494): 1.7122 | NES GOCC_CENTROSOME (padj 0.0306446): -1.299 | NES GOCC_PROTEASOME_CORE_COMPLEX (padj 0.0307775): 1.722 | NES GOCC_PROTON_TRANSPORTING_V_TYPE_ATPASE_COMPLEX (padj 0.0307775): 1.755 | NES GOCC_SNARE_COMPLEX (padj 0.0312218): 1.596 | NES GOCC_BLOC_COMPLEX (padj 0.0315137): 1.832 | NES GOCC_INTRACILIARY_TRANSPORT_PARTICLE_B (padj 0.0329395): 1.825 | NES GOCC_POLYSOMAL_RIBOSOME (padj 0.0334435): -1.667 | NES GOCC_AP_TYPE_MEMBRANE_COAT_ADAPTOR_COMPLEX (padj 0.0422332): 1.673 | NES GOCC_9PLUS0_NON_MOTILE_CILIUM (padj 0.0467153): 1.3799 | NES GOCC_PROTON_TRANSPORTING_ATP_SYNTHASE_COMPLEX (padj 0.0488031): 1.779 | NES GOCC_SEX_CHROMOSOME (padj 0.0490653): -1.646 | NES GOCC_U2_SNRNP (padj 0.0543003): -1.648 | NES GOCC_ENDOCYTIC_VESICLE (padj 0.0582082): 1.305 | NES GOCC_HIGH_DENSITY_LIPOPROTEIN_PARTICLE (padj 0.0591592): 1.639 | NES GOCC_REPLISOME (padj 0.0619841): -1.586 | NES GOCC_ANCHORED_COMPONENT_OF_MEMBRANE (padj 0.0629656): 1.328 | NES GOCC_INTRINSIC_COMPONENT_OF_SYNAPTIC_VESICLE_MEMBRANE (padj 0.0629656): 1.526 | NES GOCC_MULTIVESICULAR_BODY (padj 0.063611): 1.4828 | NES GOCC_NURD_COMPLEX (padj 0.0667331): -1.604 | NES GOCC_CYTOPLASMIC_MICROTUBULE (padj 0.0742121): 1.415 | NES GOCC_PHOTORECEPTOR_CONNECTING_CILIUM (padj 0.0825356): 1.523 | NES GOCC_REGION_OF_CYTOSOL (padj 0.0834337): -1.574 | NES GOCC_FILOPODIUM_MEMBRANE (padj 0.0837675): -1.564
